# Several values for one entry are separate records, joined by “and”; a condition that tells them apart may be missing. Equal entries are not always repeated.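 1) Cells in 96-well plates. 2) Compound, 48 h, 5 concentrations. 3) Linear interpolation between surrounding doses. 4) Unreached endpoint = highest concentration. The concentration for 50% growth inhibition is given as GI50. TGI: concentration producing complete growth inhibition.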
# Experiments:
# Test in all cases: growth of human tumour cells (NCI), 48 h
# SNB-75 CNS = test system: SNB-75 CNS
# COLO 205 colon = test system: COLO 205 colon
# NCI-H460 lung = test system: NCI-H460 lung
# HCT-15 colon = test system: HCT-15 colon
# OVCAR-8 ovarian = test system: OVCAR-8 ovarian
# LOX IMVI melanoma = test system: LOX IMVI melanoma
# TK-10 renal = test system: TK-10 renal
# EKVX NSCLC = test system: EKVX NSCLC
# SK-MEL-2 melanoma = test system: SK-MEL-2 melanoma
# NCI/ADR-RES ovarian = test system: NCI/ADR-RES ovarian
Compound,GI50 (SNB-75 CNS),TGI (SNB-75 CNS),GI50 (COLO 205 colon),TGI (COLO 205 colon),GI50 (NCI-H460 lung),TGI (NCI-H460 lung),GI50 (HCT-15 colon),TGI (HCT-15 colon),GI50 (OVCAR-8 ovarian),TGI (OVCAR-8 ovarian),GI50 (LOX IMVI melanoma),TGI (LOX IMVI melanoma),GI50 (TK-10 renal),TGI (TK-10 renal),GI50 (EKVX NSCLC),TGI (EKVX NSCLC),GI50 (SK-MEL-2 melanoma),TGI (SK-MEL-2 melanoma),GI50 (NCI/ADR-RES ovarian),TGI (NCI/ADR-RES ovarian)
COC(=O)/C(=C\c1c(C)[nH]c2ccccc12)S(=O)(=O)c1ccccc1,3.08 µM,14.6 µM,7.45 µM,22.1 µM,2.99 µM,9.61 µM,3.07 µM,12.8 µM,3.94 µM,> 100 µM,1.99 µM,5.18 µM,8.07 µM,96.6 µM,5.04 µM,> 100 µM,10.6 µM,25.5 µM,4.19 µM,67.7 µM
Cc1ccc2c(=O)c3cccc(CC(=O)O)c3oc2c1C,> 100 µM,> 100 µM,> 100 µM,> 100 µM,> 100 µM,> 100 µM,> 100 µM,> 100 µM,> 100 µM,> 100 µM,> 100 µM,> 100 µM,> 100 µM,> 100 µM,> 100 µM,> 100 µM,> 100 µM,> 100 µM,> 100 µM,> 100 µM
C[C@]12CCC(=O)C(O)=C1CC[C@@H]1[C@@H]2CC[C@]2(C)C(=O)CC[C@@H]12,–,> 100 µM,–,> 100 µM,–,> 100 µM,–,> 100 µM,–,> 100 µM,–,> 100 µM,–,> 100 µM,–,> 100 µM,–,> 100 µM,–,> 100 µM
CCSc1nc(N=Cc2cccs2)c2cn[nH]c2n1,–,–,10.9 µM,24.9 µM,14.5 µM,> 100 µM,24.6 µM,> 100 µM,55.9 µM,> 100 µM,7.89 µM,> 100 µM,9.47 µM,41.1 µM,67.8 µM,> 100 µM,26.2 µM,> 100 µM,15.7 µM,61.4 µM
CCOC(CN=c1nc(N(C)C)ss1)OCC,–,78.4 µM,–,7.28 µM,–,> 94.4 µM,–,42.8 µM,–,46.7 µM,–,31.2 µM,–,73.5 µM,–,> 80 µM,–,48.9 µM,–,> 100 µM
O=C(C(Br)Br)C(Br)C(Br)c1ccccc1 (stereo unspecified),19.9 µM,53.4 µM,1.65 µM,3.59 µM,24.5 µM,66.4 µM,1.96 µM,4.38 µM,3.16 µM,> 100 µM,1.49 µM,3.61 µM,2.47 µM,4.78 µM,14.5 µM,43.9 µM,13.7 µM,35.7 µM,5.23 µM,72.4 µM
COc1nc(C)cc2c(=O)n(-c3ccccc3)n(CCCN3CCN(c4ccc(Cl)cc4)CC3)c(=O)c12,14.1 µM,47.6 µM,> 50 µM,> 50 µM,24.6 µM,> 50 µM,> 50 µM,> 50 µM,–,–,> 50 µM,> 50 µM,> 50 µM,> 50 µM,> 50 µM,> 50 µM,> 50 µM,> 50 µM,> 50 µM,> 50 µM
O=C1c2ccccc2-c2c1c1ccccc1c(=O)n2CCNCCNCCn1c2c(c3ccccc3c1=O)C(=O)c1ccccc1-2,7.95 µM,47.5 µM,2.62 µM,> 60.8 µM,0.0246 µM,7.59 µM,0.0545 µM,1.31 µM,0.226 µM,2.29 µM,0.0437 µM,1.76 µM,1.06 µM,4.11 µM,10.6 µM,27.2 µM,19.1 µM,> 48.2 µM,1.11 µM,11.1 µM
CNC(=O)c1cccc(-c2ccc3c(N4CCOC[C@@H]4C)nc(N4CCOC[C@@H]4C)nc3n2)c1,0.027 µM and 0.117 µM and 0.0316 µM,0.373 µM and 0.647 µM and 0.403 µM,0.0648 µM and 0.204 µM and 0.142 µM,–,0.0422 µM and 0.0853 µM and 0.0538 µM,> 100 µM,0.0909 µM and 0.267 µM and 0.16 µM,> 100 µM,0.162 µM and 0.313 µM and 0.164 µM,27.7 µM and > 10 µM and 3.42 µM,0.113 µM and 0.217 µM and 0.228 µM,5.24 µM and > 4.47 µM and > 43.9 µM,0.0616 µM and 0.146 µM and 0.113 µM,2.25 µM and 1.63 µM and 1.48 µM,0.0998 µM and 0.139 µM,0.765 µM and 2 µM,0.0889 µM and 0.216 µM and 0.215 µM,5.47 µM and 1.16 µM and 0.912 µM,0.24 µM and 0.412 µM and 0.371 µM,3.56 µM and 5.12 µM and > 25.1 µM
N=C(N)CCCCCCCCC(=N)N,29.1 µM,> 100 µM,7.86 µM,20.9 µM,18.8 µM,> 100 µM,47.2 µM,> 100 µM,10.9 µM,> 100 µM,31.8 µM,> 100 µM,32.2 µM,> 100 µM,9.51 µM,> 100 µM,> 100 µM,> 100 µM,14.8 µM,> 100 µM
Cc1cc2c(F)c(Oc3ncnn4cc(OC[C@@H](C)OC(=O)[C@H](C)N)c(C)c34)ccc2[nH]1,9.42 µM,24.6 µM,10.7 µM,25.1 µM,2.1 µM,13.8 µM,0.882 µM,14 µM,8.96 µM,23.1 µM,3.75 µM,18.1 µM,13.5 µM,27.1 µM,13.5 µM,26.9 µM,19.9 µM,35.3 µM,9.79 µM,30.2 µM
C[N+](C)(CCCCCC[N+](C)(C)CCCN1C(=O)c2cc3ccccc3cc2C1=O)CCCN1C(=O)c2ccccc2C1=O,> 37.5 µM,> 37.5 µM,> 37.5 µM,> 37.5 µM,> 37.5 µM,> 37.5 µM,> 37.5 µM,> 37.5 µM,> 37.5 µM,> 37.5 µM,> 37.5 µM,> 37.5 µM,> 37.5 µM,> 37.5 µM,> 37.5 µM,> 37.5 µM,> 37.5 µM,> 37.5 µM,> 37.5 µM,> 37.5 µM
O=C1C(=O)c2ccccc2C(O)=C1C(CCc1ccccc1)C1=C(O)c2ccccc2C(=O)C1=O,–,> 100 µM,–,> 100 µM,–,> 100 µM,–,> 100 µM,–,> 100 µM,–,> 100 µM,–,> 100 µM,–,> 100 µM,–,> 100 µM,–,> 100 µM
C[C@H]1CCC/C=C/[C@@H]2C[C@H](O)C[C@H]2[C@H](O)[C@@H](S(=O)CCN(C)C)CC(=O)O1 (stereo partly specified),0.0332 µM,–,0.107 µM,0.876 µM,0.351 µM,> 100 µM,0.363 µM,> 57.9 µM,0.0966 µM,–,0.0697 µM,> 100 µM,0.468 µM,> 100 µM,0.384 µM,–,0.223 µM,–,0.0629 µM,> 100 µM
O=C(Oc1ccc(CCl)cc1)c1ccccc1,0.172 µM,0.356 µM,0.136 µM,0.307 µM,0.238 µM,1.09 µM,0.181 µM,0.393 µM,0.155 µM,0.291 µM,0.158 µM,0.305 µM,0.174 µM,0.33 µM,0.531 µM,1.79 µM,0.175 µM,0.358 µM,0.2 µM,0.472 µM
COc1ccc(-c2nc(-c3cn(C)c4ncccc34)cs2)cc1,> 100 µM,> 100 µM,29 µM,> 100 µM,32.9 µM,> 100 µM,25.3 µM,> 100 µM,> 100 µM,> 100 µM,54.1 µM,> 100 µM,> 100 µM,> 100 µM,17.4 µM,> 100 µM,55.3 µM,> 100 µM,11.9 µM,> 100 µM
C=C(CN1CCc2ccccc2C1)c1ccc(C(=O)Nc2ccc(N)cc2)cc1,9.87 µM,53.6 µM,22.7 µM,60.6 µM,27.7 µM,> 100 µM,32.2 µM,> 100 µM,22.6 µM,77.7 µM,17.7 µM,55.7 µM,26.3 µM,> 100 µM,22.4 µM,> 100 µM,24.4 µM,> 100 µM,19.1 µM,> 100 µM
COc1c(O)ccc2c1CN1CCc3cc4c(cc3C1C2)OCO4 (stereo unspecified),–,65.3 µM,–,> 100 µM,–,> 74.7 µM,–,> 100 µM,–,> 100 µM,–,> 77.8 µM,–,> 79.6 µM,–,> 100 µM,–,> 92.9 µM,–,90.2 µM
COc1ccc(-c2cn[nH]c2-c2cc(OC)c(OC)c(OC)c2)cc1N,< 0.01 µM,> 100 µM,< 0.01 µM and 0.0347 µM,–,< 0.01 µM and 0.0343 µM,13.3 µM and > 38.5 µM,< 0.01 µM and 0.0298 µM,> 100 µM,< 0.01 µM and 0.0519 µM,> 100 µM,< 0.01 µM and 0.0436 µM,> 100 µM,–,> 100 µM,< 0.01 µM and 0.0673 µM,> 100 µM,–,> 100 µM,< 0.01 µM and 0.0379 µM,> 100 µM
CC(C)(O)C1OCC(C2CCC3(C)C4=CCC5C(C)(C)C(O)CCC5(C)C4CCC23C)CC1O (stereo unspecified),–,34.6 µM,–,31.5 µM,–,26.1 µM,–,28 µM,–,27.9 µM,–,42.7 µM,–,25.9 µM,–,32.3 µM,–,48.7 µM,–,27 µM
O=C1CCC2(C=C(Br)C(=O)C(Br)=C2)O1,13.2 µM,26 µM,1.52 µM,2.98 µM,19.6 µM,38.6 µM,2.77 µM,8.76 µM,3.45 µM,11.5 µM,2.53 µM,7.53 µM,2.01 µM,4.14 µM,5.29 µM,12.6 µM,15 µM,30.3 µM,16.2 µM,37.3 µM
OCCCCC#Cc1ccccc1C#Cc1ccccc1C(F)(F)F,18.7 µM,35.9 µM,17.7 µM,33.9 µM,17.9 µM,34.7 µM,3.5 µM,16 µM,13.3 µM,31.6 µM,4.99 µM,18.5 µM,18.6 µM,47.1 µM,12.7 µM,26.8 µM,15.6 µM,32.6 µM,4.2 µM,16.2 µM
C/C=C(\C)C(=O)O[C@H]1C=CC(=O)O[C@H]1CNC(=O)[C@H](C)O,22.3 µM,48.8 µM,12.6 µM,29.3 µM,28.2 µM,94.2 µM,15.6 µM,32 µM,24.3 µM,65.9 µM,15.9 µM,30.4 µM,17.2 µM,31.8 µM,26.2 µM,67.4 µM,20.1 µM,51 µM,26.2 µM,81.4 µM
Cc1ccc2c(N)c(C(=O)N[C@H]3CCc4cc(N5CC6CCC(C5)N6)ccc4C3)sc2n1,0.355 µM,2.83 µM,0.383 µM,1.49 µM,0.152 µM,1.43 µM,0.34 µM,2.36 µM,0.385 µM,2.83 µM,0.0761 µM,0.405 µM,0.434 µM,3.26 µM,0.572 µM,2.34 µM,0.44 µM,1.29 µM,0.798 µM,2.76 µM
COC(=O)C(Nc1ccc(OC)cc1)c1ccccc1 (stereo unspecified),–,–,–,> 100 µM,–,> 100 µM,–,> 100 µM,–,> 100 µM,–,> 100 µM,–,> 100 µM,–,> 100 µM,–,> 100 µM,–,> 100 µM
Nc1ccccc1C#C/C=C\C#Cc1ccc(Cl)cc1Cl,–,–,23.8 µM,> 100 µM,10.7 µM,26.5 µM,–,–,19.1 µM,41.5 µM,11 µM,26.5 µM,11.6 µM,26.8 µM,18.8 µM,47.9 µM,25 µM,70.1 µM,4.42 µM,18.8 µM
CN(C)c1ccc2c3c(c(=O)oc2c1)CCC3,–,–,–,> 100 µM,–,> 100 µM,–,> 100 µM,–,> 100 µM,–,> 100 µM,–,> 100 µM,–,> 100 µM,–,> 100 µM,–,> 100 µM
CC(=O)OC(C)(C)/C=C/C(=O)[C@](C)(O)[C@H]1[C@H](O)C[C@@]2(C)[C@@H]3CC=C4[C@@H](C[C@H](O)C(=O)C4(C)C)[C@]3(C)C(=O)C[C@]12C,–,< 0.01 µM,–,–,–,1.37 µM,–,4.99 µM,–,5.8 µM,–,< 0.01 µM,–,< 0.01 µM,–,< 0.0221 µM,–,< 0.01 µM,–,15.2 µM

# — PubChem BioAssay (NCI)
